Laboratory results taken from the NIST ThermoML archive (doi:10.1021/je400250u).
± gives the expanded uncertainty stated by the source.

Assays:
[1] = xn = mol fraction of the nth substance listed; details: 100 kPa, Liquid; for viscosity: Capillary tube (Ostwald / Ubbelohde) method; for mass density: Vibrating tube method
[2] = refractive index (Na D-line) (dimensionless); xn = mol fraction of the nth substance listed; details: 101 kPa, Liquid, Standard Abbe refractometry

C1CC[C@H]2CCCC[C@@H]2C1 [trans-decahydronaphthalene] + CCCCCCCCCC
Details	mass density, [1] [kg/m3]	refractive index, [2]	viscosity, [1] [mPa·s]
298.15 K, x1 = 0.1035	–	1.4144 ± 0.0007	–
298.15 K, x1 = 0.2016	–	1.4192 ± 0.0007	–
298.15 K, x1 = 0.3001	–	1.4243 ± 0.0007	–
298.15 K, x1 = 0.3994	–	1.4301 ± 0.0007	–
298.15 K, x1 = 0.5036	–	1.4355 ± 0.0007	–
298.15 K, x1 = 0.6062	–	1.4414 ± 0.0007	–
298.15 K, x1 = 0.6989	–	1.4471 ± 0.0007	–
298.15 K, x1 = 0.7891	–	1.4524 ± 0.0007	–
298.15 K, x1 = 0.8949	–	1.4592 ± 0.0007	–
298.15 K, x1 = 1	–	1.4662 ± 0.0007	–
308.15 K, x1 = 0.1035	–	1.4099 ± 0.0007	–
308.15 K, x1 = 0.2016	–	1.4153 ± 0.0007	–
308.15 K, x1 = 0.3001	–	1.4204 ± 0.0007	–
308.15 K, x1 = 0.3994	–	1.4256 ± 0.0007	–
308.15 K, x1 = 0.5036	–	1.4317 ± 0.0007	–
308.15 K, x1 = 0.6062	–	1.4371 ± 0.0007	–
308.15 K, x1 = 0.6989	–	1.4431 ± 0.0007	–
308.15 K, x1 = 0.7891	–	1.4484 ± 0.0007	–
308.15 K, x1 = 0.8949	–	1.4553 ± 0.0007	–
308.15 K, x1 = 1	–	1.4618 ± 0.0007	–
313.15 K, x1 = 0.1035	728.37 ± 0.22	–	–
313.15 K, x1 = 0.2016	740.45 ± 0.21	–	–
313.15 K, x1 = 0.3001	752.95 ± 0.2	–	–
313.15 K, x1 = 0.3994	765.99 ± 0.19	–	–
313.15 K, x1 = 0.5036	780.11 ± 0.18	–	–
313.15 K, x1 = 0.6062	794.56 ± 0.17	–	1.024 ± 0.012
313.15 K, x1 = 0.6989	808.04 ± 0.16	–	1.113 ± 0.012
313.15 K, x1 = 0.7891	821.54 ± 0.16	–	1.201 ± 0.012
313.15 K, x1 = 0.8949	837.9 ± 0.15	–	1.33 ± 0.013
313.15 K, x1 = 1	854.88 ± 0.14	–	1.505 ± 0.013
318.15 K, x1 = 0.1035	724.55 ± 0.22	1.4055 ± 0.0007	0.702 ± 0.011
318.15 K, x1 = 0.2016	736.64 ± 0.21	1.4112 ± 0.0007	0.734 ± 0.011
318.15 K, x1 = 0.3001	749.16 ± 0.2	1.4162 ± 0.0007	0.777 ± 0.011
318.15 K, x1 = 0.3994	762.2 ± 0.19	1.4211 ± 0.0007	0.826 ± 0.011
318.15 K, x1 = 0.5036	776.34 ± 0.18	1.4271 ± 0.0007	0.887 ± 0.012
318.15 K, x1 = 0.6062	790.8 ± 0.17	1.4336 ± 0.0007	0.959 ± 0.012
318.15 K, x1 = 0.6989	804.28 ± 0.16	1.4389 ± 0.0007	1.032 ± 0.012
318.15 K, x1 = 0.7891	817.79 ± 0.16	1.4448 ± 0.0007	1.119 ± 0.012
318.15 K, x1 = 0.8949	834.16 ± 0.15	1.4518 ± 0.0007	1.237 ± 0.012
318.15 K, x1 = 1	851.14 ± 0.14	1.4581 ± 0.0007	1.394 ± 0.013
323.15 K, x1 = 0.1035	720.72 ± 0.22	–	0.662 ± 0.011
323.15 K, x1 = 0.2016	732.82 ± 0.21	–	0.696 ± 0.011
323.15 K, x1 = 0.3001	745.35 ± 0.2	–	0.732 ± 0.011
323.15 K, x1 = 0.3994	758.4 ± 0.19	–	0.777 ± 0.011
323.15 K, x1 = 0.5036	772.55 ± 0.18	–	0.834 ± 0.011
323.15 K, x1 = 0.6062	787.02 ± 0.17	–	0.896 ± 0.012
323.15 K, x1 = 0.6989	800.51 ± 0.16	–	0.966 ± 0.012
323.15 K, x1 = 0.7891	814.04 ± 0.16	–	1.046 ± 0.012
323.15 K, x1 = 0.8949	830.41 ± 0.15	–	1.154 ± 0.012
323.15 K, x1 = 1	847.4 ± 0.14	–	1.295 ± 0.012
